Patent US9216942B2, “Compounds and uses thereof for treating inflammation and modulating immune responses” (PURAPHARM COMPANY LIMITED, priority 2012, dated 2015)

What was measured:
[1] = test system: PBMac; test: MTT cytotoxicity assay on PBMac; assay type: cell-based, Human; details: 25-75 ug/ml, time course of 48 h
Description: Incubation of PBMac cells with the compounds at various concentrations produces no significant difference in the metabolic activities of the cells, when compared to control. Cytotoxic effects of Compounds A1, A2 and Cim A (25-75 ug/ml) on PBMac are determined by MTT (3-[4,5-dimethylthiazol-2-yl]-2,5-di-phenyltetrazolim bromide) assays over a time course of 48 h.
(§1) Human peripheral blood monocytic cells (PBMC) were isolated from the buffy coat of healthy donor blood supplied by Hong Kong Red Cross by Ficoll-Paque (Amersham Pharmacia Biotech, Piscataway, N.J.) density gradient centrifugation as described in our previous reports. In brief, the buffy coat was spun at 3000 rotations per min (rpm) for 15 min to separate the blood cells and the plasma. The heat inactivated serum was filtered for future use.
(§2) The cell layer was diluted with phosphate buffered saline (PBS) in a ratio of 1:1. The diluted cells were overlaid on Ficoll-Paque slowly and centrifuged at 2300 rpm for 20 min for separation of mononuclear cells from erythrocytes. The mononuclear cell layer was removed and washed with RPMI 1640 medium until the supernatant was clear.
(§3) The cells were finally resuspended in RPMI 1640 medium supplemented with 5% autologous serum and cultured for 1 hr. The non-adherent cells were removed afterwards and the remaining adherent cells were further incubated for another 24 hr at 37° C. in 5% carbon dioxide (CO2).
(§4) The adherent monocytic cells were detached and seeded onto tissue culture plates and incubated for another 7-14 days in order to differentiate the primary blood monocytic cells to primary blood macrophages (PBMac).

[2] = test system: LPS-induced TNF-α production; test: Inhibition of LPS-induced TNF-α production in PBMac (ELISA); assay type: cell-based, Human; details: for inhibition of LPS-induced TNF-α protein production: PBMac pre-incubated with compound 18 h, then 10 ng/ml LPS for 24 h, ELISA of supernatant, mean±S.D., compound concentration not given (25 and 50 ug/ml tested)
Description: FIGS. 2 (A-C) show the inhibition of LPS-induced TNF-α production by Compound A1, Compound A2 and Cim A. PBMac cells are incubated with (A) 25 and 50 ug/ml A1 or (B) 25 and 50 ug/ml A2 or (C) 25 and 50 ug/ml Cim A for 18 h prior to the addition of 10 ng/ml LPS for another 24 h. The culture supernatants are collected and assayed for TNF-α production by enzyme-linked immunosorbent assay (ELISA). The results shown are the mean values±standard derivation (S.D.) of at least three independent experiments, with cells obtained from different donors. * P<0.05, ** P<0.01 compared with the control.
Endotoxin (lipopolysachamide, LPS) from E. coli was purchased from Sigma and used as an inducer of TNF-α expression. Dexamethasone (Sigma) was used as a control drug to inhibit the LPS induction of TNF-α.
as §1, §2, §3, §4
Culture supernatants of the LPS-treated PBMac, with or without pretreatment of Cim A, Compound A1 or Compound A2, were collected at different time intervals and stored at −70° C. The levels of the secreted TNF-α were measured by ELISA kits specific for the cytokine (R&D system, Minneapolis, Minn.).

SMILES	cytotoxic effects (MTT, metabolic activity of cells vs control) [1]	inhibition of LPS-induced TNF-α protein production [2]	activity in inhibiting LPS-induced TNF-α production, higher than that of Cim A ([2]; compound at 50 μg/ml, relative to Cim A)
COc1ccc(/C=C/C(=O)OCC(=O)Cc2ccc(O)c(O)c2)cc1 [Compound A2]	almost no cytotoxic effects	67±10%	34%
O=C(COC(=O)/C=C/c1ccc(O)c(O)c1)Cc1cccc(O)c1 [Compound A1]	almost no cytotoxic effects	26±15%	
COc1ccc(/C=C/C(=O)OCC(=O)Cc2ccc(O)c(O)c2)cc1O [Cim A, Cimiracemate A, reference compound]	almost no cytotoxic effects	50±19%	
